Experimental data published in paper PMC6321145 (Molecules, 2018).

Columns and labels:
SH-SY5Y cells = experiment: Cellular ROS detection (DCFH-DA) in SH-SY5Y cells treated with t-BuOOH; type: cell-based, human; conditions: compound 2.5 μM; 0.1 mM t-BuOOH; compared with Trolox
Procedure: To further investigate their antioxidant activity in SH-SY5Y cells, cellular ROS detection assay based on dichlorofluorescein diacetate (DCFH-DA) was performed. with Trolox and N-acetyl-L-cysteine (NAC) as reference compounds.
SH-SY5Y cells were maintained in Dulbecco’s modified Eagle’s medium (DEME) and supplemented with 1 mM glutamine, 10% fetal calf serum, 100 U/mL penicillin, and 100 μg/mL streptomycin. The cultures were maintained at 37 °C in a humidified incubator containing 5% CO2 and were passaged twice weekly.
The antioxidant activity of the compounds in SH-SY5Y cells were tested with the fluorescent probe (2′,7′-dichlorofluorescein diacetate, DCFH-DA) as reported with some variation. SH-SY5Y cells were sub-cultured in 96-well plates at a seeding density of 1 × 10^4 cells per well for 24 h, then the medium was removed, the tested compounds (2.5 μM) was added and incubated for another 24 h at 37 °C. After that, the cells were washed with PBS and incubated with 5 μM DCFH-DA in PBS at 37 °C in 5% CO2 for 30 min. Then DCFH-DA was removed, the cells were washed three times and incubated with 0.1 mM t-BuOOH in PBS for 30 min. After the incubation, the cell fluorescence from each well was measured at 485 nm excitation and 535 nm emission with a monochromator based multimode microplate reader ([…] M1000).

Aβ1–42 fibrils = biological target: T1, Aβ1–42 fibrils (Homo sapiens, UniProt P05067); experiment: TEM assay of Aβ1–42 fibrils; type: biochemical; conditions: compound 20 μM
T1 construct: Aβ1–42 (Sigma, St. Louis, MO, USA; counterion, NaOH) stock solution was prepared by dissolving Aβ1–42 peptide in ammonium hydroxide; purchased Sigma
T1 sequence (P05067 672-713): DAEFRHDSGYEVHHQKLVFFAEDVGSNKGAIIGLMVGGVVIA
Procedure: To further complement the ThT binding assay, A transmission electron microscopy (TEM) assay was employed to monitor and clarify the effect of compound 6b1 on Aβ1−42 aggregation.
The ability of compound 6b1 to disaggregate self-induced Aβ1–42 aggregation fibrils was also investigated. Aβ1–42 fibrils were prepared by incubating fresh Aβ1–42 for 24 h at 37 °C, and the test compound was added to the sample and incubated for another 24 h at 37 °C. Then the sample was analyzed by ThT binding assay and TEM assay.
Aβ1–42 peptide (Sigma) was dissolved in 20 mM phosphate buffer (pH 7.4) at 4 °C to 100 μM before use.
Aβ1–42 was incubated at 37 °C for 24 h. Then, 40 μM tested compound was added and incubated at 37 °C for another 24 h. The final concentrations of Aβ1–42 and the compounds were 50 μM and 20 μM, respectively. After incubation, aliquots (5 μL) of the samples were placed on a carbon-coated copper/rhodium grid for 2 min at room temperature. Each grid was stained with uranyl acetate (1%, 5 μL) for 2 min. Excess staining solution was removed and the specimen was transferred for imaging with transmission electron microscopy (JEOL JEM-1400, Tokyo, Japan).

[1] = tested on: SH-SY5Y human neuroblastoma cells; experiment: Protective effect against Aβ1–42-induced toxicity in SH-SY5Y cells (MTT); type: cell-based
Procedure: The cytoprotective effect of compound 6b1 against Aβ1–42 damage in SH-SY5Y human neuroblastoma cell lines was determined by MTT assay. […] To investigate the protective effect of compound 6b1 on Aβ1–42 induced cell toxicity, SH-SY5Y cells exposed to Aβ1–42 (20 μM) were incubated with different concentrations of compound 6b1 (5, 10, and 20 μM) for 24 h, and the cell viability was tested.
SH-SY5Y cells were seeded in 96-well plates (1 × 10^4 cells per well) and exposed to Aβ1–42 (20 μM) in the presence of compound 6b1 at the increasing doses (0, 5, 10 and 20 μM). After 24 h and 48 h, cell viability was measured by the MTT assay.

mice = experiment: Step-down passive avoidance test, scopolamine-induced memory impairment; type: in vivo
Procedure: A step-down passive avoidance test was used to assess learning and memory in mice. The apparatus (Shanghai XinRuan, Shanghai, China) consisted of two identically sized compartments, with a guillotine door to separate light and dark. Illumination was available in the light box through LED lights at 250 lux. The mice underwent two separate trials: a training trial and a test trial 24 h later. For training trial, mice were initially placed in the light compartment and were allowed to explore the environment freely for 5 min so that they can be familiar with the environment. Then the door was opened, the mice tried to enter the dark compartment since they preferred to stay in dark place. As soon as the mice came into the dark compartment, an electrical shock was delivered through the steel rods. The training lasted for 5 min. […] The test trial was preformed after 24 h. The mice were placed into the light compartment and the door was opened. The time that the mouse spent to enter the dark compartment was recorded as the latency. The numbers that the mouse entered the dark compartment during 5 min were measured as error numbers.

BuChE = BuChE (Homo sapiens, UniProt P06276); experiment: BuChE inhibition (data not shown); type: biochemical
Sequence of BuChE (P06276 29-602): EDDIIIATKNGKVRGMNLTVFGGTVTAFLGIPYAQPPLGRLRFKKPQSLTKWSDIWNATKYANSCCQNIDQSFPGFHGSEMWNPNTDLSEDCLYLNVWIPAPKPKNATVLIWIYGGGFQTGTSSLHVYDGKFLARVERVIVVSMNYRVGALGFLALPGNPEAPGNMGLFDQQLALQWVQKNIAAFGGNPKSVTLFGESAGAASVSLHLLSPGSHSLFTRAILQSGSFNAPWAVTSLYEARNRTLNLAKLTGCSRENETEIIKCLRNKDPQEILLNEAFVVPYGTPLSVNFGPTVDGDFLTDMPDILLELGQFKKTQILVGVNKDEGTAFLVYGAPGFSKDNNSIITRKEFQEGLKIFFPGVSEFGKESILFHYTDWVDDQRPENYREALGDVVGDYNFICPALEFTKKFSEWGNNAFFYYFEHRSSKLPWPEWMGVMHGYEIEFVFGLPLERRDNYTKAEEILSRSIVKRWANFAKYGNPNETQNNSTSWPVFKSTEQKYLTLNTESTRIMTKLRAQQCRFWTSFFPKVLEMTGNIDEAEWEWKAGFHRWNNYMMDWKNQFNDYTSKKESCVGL

## CCN(CC)c1ccc(/C=C/c2cc(NCCCN(C)C)c3ccccc3n2)cc1 [Compound 6b1, (E)-N^1-(2-(4-(Diethylamino)styryl)quinolin-4-yl)-N^3,N^3-dimethylpropane-1,3-diamine]
SH-SY5Y cells
  Antioxidant activity in SH-SY5Y cells (ROS generation, DCFH-DA fluorescence): more antioxidant activity than Trolox
Aβ1–42 fibrils; 37 °C, 24 h
  TEM: Aβ1–42 fibril formation in presence of compound: only fewer thin fibrils and small bulk aggregates
Aβ1–42 fibrils; preformed fibrils, 24 h at 37 °C
  TEM: disaggregation of Aβ1–42 fibrils: could disaggregate more Aβ1–42 fibrils than resveratrol
[1]; Aβ1–42 20 μM, compound 5, 10, 20 μM, 24 h
  Cell viability against Aβ1–42-induced cytotoxicity: increased the cell viability
[1]; Homo sapiens, SH-SY5Y, 48 h, read-out: Cell viability after co-incubation with Aβ1–42
  viability at 20 µM: 89.8%
mice; 4.0 mg/kg (low dose)
  Improvement of memory impairment compared with model group: didn’t exhibit significant improvement
mice; 16.0 mg/kg (high dose)
  Latency time: 182 s
  Number of errors: 2.72
BuChE
  Inhibitory activity toward BuChE: weak
